Consider two compounds from ChEMBL document CHEMBL3853273, “Multi-target screening mines hesperidin as a multi-potent inhibitor: Implication in Alzheimer's disease therapeutics” (Eur J Med Chem, 2016).

Assay [1] is described as follows: Antioxidant activity of the compound assessed as inhibition of fenton reaction-induced DNA strand cleavage of plasmid pcDNA Hismyc B4 after 1 hr by ethidium bromide staining-based agarose gel electrophoresis. In kind it is functional.
For assay [2], the target named is Beta-secretase 1 (Homo sapiens) (UniProt P56817). As to the kind of experiment: Inhibition of BACE1 (unknown origin) at 500 nM incubated for 2 hrs by FRET assay relative to control.
Assay [3] deals with Amyloid-beta precursor protein (Homo sapiens) (UniProt P05067). The assay is described as follows: Inhibition of amyloid beta (25 to 35 residues) (unknown origin) aggregation at 20 uM incubated for 3 days by thioflavin T-based fluorescence spectrophotometric method.
Assay [4] deals with Beta-secretase 1 (Homo sapiens) (UniProt P56817). The assay is described as follows: Binding affinity to BACE1 (unknown origin) by fluorescence titration method.
Assay [5] in a line: Antioxidant activity of the compound assessed as ABTS free radical scavenging activity. In kind it is functional.
In assay [6] the target is Beta-secretase 1 (Homo sapiens) (UniProt P56817). The assay is described as follows: Binding affinity to BACE1 (unknown origin) in PBS at pH 7.4 up to 10 uM by steady state spectrofluorimeter.
Assay [7] concerns the target Amyloid-beta precursor protein (Homo sapiens) (UniProt P05067). As to the kind of experiment: Inhibition of amyloid beta (25 to 35 residues) (unknown origin) aggregation at 10 uM incubated for 3 days by thioflavin T-based fluorescence spectrophotometric method relative to control.
Assay [8] concerns the target Beta-secretase 1 (Homo sapiens) (UniProt P56817). The assay is described as follows: Binding affinity to BACE1 (unknown origin) in acetate buffer at pH 4.8 assessed as increase in lifetime species of excited tryptophan in active site at 5 uM by time-resolved fluorescence spectroscopy relative to control.
Assay [9] concerns the target Amyloid-beta precursor protein (Homo sapiens) (UniProt P05067). The assay is described as follows: Inhibition of amyloid beta (25 to 35 residues) (unknown origin) aggregation at 20 uM incubated for 3 days by intrinsic flavonoid fluorescence assay.
The target of assay [10] is Beta-secretase 1 (Homo sapiens) (UniProt P56817). The assay is described as follows: Binding affinity to BACE1 (unknown origin) in acetate buffer at pH 4.8 at 0.25 to 5 uM by steady state spectrofluorimeter.
Assay [11] shares this target. The assay is described as follows: Binding affinity to BACE1 (unknown origin) in acetate buffer at pH 4.8 at 250 nM by steady state spectrofluorimeter.
Assay [12] is described as follows: Antioxidant activity of the compound assessed as inhibition of fenton reaction-induced DNA strand cleavage of plasmid pcDNA Hismyc B4 at 250 uM after 1 hr by ethidium bromide staining-based agarose gel electrophoresis. In kind it is functional.
Assay [13] concerns the target Amyloid-beta precursor protein (Homo sapiens) (UniProt P05067). The assay is described as follows: Inhibition of amyloid beta (25 to 35 residues) (unknown origin) aggregation at 100 uM incubated for 7 days by atomic force microscopic method.
For assay [14] the target is unchanged. The assay is described as follows: Inhibition of amyloid beta (25 to 35 residues) (unknown origin) aggregation at 20 uM incubated for 3 days by 8-anilino-1-naphthalene-based fluorescence spectrophotometric method.

The source made the active and inactive calls. The calls are words filed in the database; no cut-off is given here.

Amyloid-beta precursor protein (Homo sapiens), sequence (P05067 whole entry, the tested form may be a part): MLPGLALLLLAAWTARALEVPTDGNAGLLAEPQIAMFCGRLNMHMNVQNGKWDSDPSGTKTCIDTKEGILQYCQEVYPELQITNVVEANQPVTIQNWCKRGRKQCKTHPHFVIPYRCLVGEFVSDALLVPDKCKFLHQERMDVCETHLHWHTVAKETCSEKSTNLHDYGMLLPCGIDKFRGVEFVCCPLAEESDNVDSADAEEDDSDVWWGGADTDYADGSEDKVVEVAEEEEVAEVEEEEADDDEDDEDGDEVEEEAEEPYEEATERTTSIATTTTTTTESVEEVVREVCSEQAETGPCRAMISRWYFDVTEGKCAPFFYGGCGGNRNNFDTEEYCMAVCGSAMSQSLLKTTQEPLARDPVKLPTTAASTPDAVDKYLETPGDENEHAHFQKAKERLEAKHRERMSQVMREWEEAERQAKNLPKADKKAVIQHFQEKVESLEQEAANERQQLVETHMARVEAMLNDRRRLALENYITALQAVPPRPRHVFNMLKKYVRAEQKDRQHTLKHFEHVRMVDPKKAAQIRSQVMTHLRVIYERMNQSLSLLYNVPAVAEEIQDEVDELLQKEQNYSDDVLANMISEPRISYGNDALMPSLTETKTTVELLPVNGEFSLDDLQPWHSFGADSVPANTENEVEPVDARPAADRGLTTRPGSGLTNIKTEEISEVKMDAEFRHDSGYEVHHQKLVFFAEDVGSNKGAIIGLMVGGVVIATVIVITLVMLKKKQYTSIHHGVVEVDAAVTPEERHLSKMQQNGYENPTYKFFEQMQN
Beta-secretase 1 (Homo sapiens), sequence (P56817 whole entry, the tested form may be a part): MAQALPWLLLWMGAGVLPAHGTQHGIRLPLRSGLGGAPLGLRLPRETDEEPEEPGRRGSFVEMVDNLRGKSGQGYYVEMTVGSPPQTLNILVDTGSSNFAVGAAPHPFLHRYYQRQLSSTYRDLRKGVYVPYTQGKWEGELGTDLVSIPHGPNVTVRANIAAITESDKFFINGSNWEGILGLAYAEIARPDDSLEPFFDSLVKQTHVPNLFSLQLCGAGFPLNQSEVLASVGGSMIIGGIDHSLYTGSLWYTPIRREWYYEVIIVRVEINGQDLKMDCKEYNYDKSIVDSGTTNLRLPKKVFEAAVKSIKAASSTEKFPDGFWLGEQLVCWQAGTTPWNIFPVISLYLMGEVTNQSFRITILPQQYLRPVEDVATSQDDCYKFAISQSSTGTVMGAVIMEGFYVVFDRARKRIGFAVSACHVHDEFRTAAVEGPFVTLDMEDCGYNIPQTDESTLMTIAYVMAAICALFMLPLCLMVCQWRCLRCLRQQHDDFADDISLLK

Broadly, the inhibition is the percentage by which the read-out fell short of the control. On to `Cc1c(C)c2c(c(C)c1O)CCC(C)(C(=O)O)O2` (stereo not given), for which the inhibition result in [1] was “Active”.
A word on the IC50: it is the concentration at which inhibition is half-maximal. Consider `COc1ccc([C@@H]2CC(=O)c3c(O)cc(O[C@@H]4O[C@H](CO[C@@H]5O[C@@H](C)[C@H](O)[C@@H](O)[C@H]5O)[C@@H](O)[C@H](O)[C@H]4O)cc3O2)cc1O` [HESPERIDIN], for which the inhibition in assay [2] is 100%; in assay [7], 40%. Also, the inhibition entry in [3], in assay [9], in assay [12], in assay [13] and in assay [14] was “Active” throughout. The compound also returned a K in [4] of 302000. Besides, the Activity entry in [5] is “Dose-dependent effect”. In addition, the IC50 in assay [5] was 16.5 µM. Also, the outcome in assay [6], in assay [10] and in assay [11] was Active. Besides, in [8], the fold change (FC) was 2.5.
